# Results published in publication PMC11713942 (Therapeutic Advances in Infectious Disease, 2025).
# How the values were obtained:
# [1] = cited from earlier work
# [2] = tested on: Staphylococcus spp. infective endocarditis; assay: Microbiological and clinical response of Staphylococcus spp. infective endocarditis; format: in vivo, human; conditions: all patients, both dose groups
# Procedure: The monocentric, prospective, cohort study was approved by the local ethics committee. […] All participants signed an informed consent form before the initiation of treatment and data/biological samples collection. […] Due to the COVID-19 pandemic, we could not completely fulfil the study design, and patients were treated with either 8–10 mg/kg (group A) or 11–12 mg/kg (group B), as per routine clinical treatment. In six patients, PK data relative to both doses are available, as per the initial protocol. […] Microbiological failure was defined by persistent or breakthrough infection during IE treatment.
# clinical = conditions: human, in vivo; for half-life: Daptomycin t1/2 (elimination half-life), IV, 0.693/kel, median (IQR)
# Procedure: Tubes were centrifuged at 10,400 rpm for at least 10 min at room temperature; separated plasma was then dispensed into polypropylene-labelled tubes and stored at −80°C until the bioanalysis was carried out. […] QcH (80 µg/mL), QcM (40 µg/mL) and QcL (4 µg/mL), by serial dilution in plasma. […] Just before the analysis, patient plasma samples were thawed, and calibrators and quality controls were prepared fresh in the same matrix. Each sample was processed by protein precipitation: 50 µL of plasma was prepared in pre-labelled Eppendorf tubes®. […] In total, 200 µL of the supernatant was transferred to HPLC vials, and 5 µL was injected into the chromatographic column. The HPLC system used was a Thermo Scientific quaternary pump® (Accela pump; Thermo Fisher Scientific, San Francisco, CA, USA) interfaced with an autosampler (Accela autosampler). […] From 3.10 to 4.50 min, the column was again equilibrated to the initial conditions. […] Xcalibur 2.07 and Lcquan2.5.6 software from Thermo Scientific (San Jose, CA, USA) were utilized for the LC-MS/MS system control, data acquisition and data analysis. Calibration curves were generated using weighted (1/x^2) linear regression curves.
# [3] = Procedure: The monocentric, prospective, cohort study was approved by the local ethics committee. […] All participants signed an informed consent form before the initiation of treatment and data/biological samples collection. […] Due to the COVID-19 pandemic, we could not completely fulfil the study design, and patients were treated with either 8–10 mg/kg (group A) or 11–12 mg/kg (group B), as per routine clinical treatment. […] Microbiological failure was defined by persistent or breakthrough infection during IE treatment.
# The occurrence of CK elevation above the normal value (>170 mU/mL) and eosinophilic pneumonia was evaluated.
# [4] = multilevel linear mixed model
compound,measurement,setting,value
"CCCCCCCCCC(=O)N[C@@H](Cc1c[nH]c2ccccc12)C(=O)N[C@H](CC(N)=O)C(=O)N[C@@H](CC(=O)O)C(=O)N[C@@H]1C(=O)NCC(=O)N[C@@H](CCCN)C(=O)N[C@@H](CC(=O)O)C(=O)N[C@H](C)C(=O)N[C@@H](CC(=O)O)C(=O)NCC(=O)N[C@H](CO)C(=O)N[C@@H]([C@H](C)CC(=O)O)C(=O)N[C@@H](CC(=O)c2ccccc2N)C(=O)O[C@@H]1C [Daptomycin, daptomycin]",Increase of systemic exposure in elderly individuals (>75 years) compared with younger (18–30 years),[1],58%
same,Breakthrough infections while on treatment,[2],without evidence of breakthrough infections
same,Microbiologic response,[2],All patients displayed a microbiologic response
same,Survival at 30 days,[2],All patients were alive
same,Dose linearity of pharmacokinetics,clinical,linear daptomycin pharmacokinetics
same,clearance,"clinical; iv, Daptomycin CL",8.17 mL/min
same,half-life,"clinical; iv, group A 8–10 mg/kg daily, 15 patients",1010 min
same,half-life,"clinical; iv, group B 11–12 mg/kg daily, 14 patients",906 min
same,MIC,Staphylococcus spp.,< 0.5 µg/mL
same,Eosinophilic pneumonia during treatment,[3]; 8–12 mg/kg daily,none of the patients
same,CK increase during treatment,[3]; in vivo,none of the patients
same,Effect of gender on AUC0–24,[4],gender did not affect the results
same,"Beta coefficient, association of AUC0–24 with dose group","[4]; 95% CI 64–483, p = 0.010",274
